Measurements from paper PMC2965873, “Phase I and pharmacological study of the broad-spectrum tyrosine kinase inhibitor JNJ-26483327 in patients with advanced solid tumours” (British Journal of Cancer, 2010).

Assays:
[1] = test system: patients with advanced solid tumours; assay: phase I safety, DLT and MTD; assay type: in vivo
Procedure: JNJ-26483327 was supplied by Johnson & Johnson Pharmaceutical Research and Development, Beerse, Belgium as 10 or […] oral solution for doses ⩽1200 mg, or capsules of 50, 100 or 300 mg for doses ⩾1500 mg. Medication was taken in combination with food BID with 12 h intervals. A cycle was defined as 28 days of treatment.
The study followed an accelerated-escalation design. Initial cohorts consisted of one patient with dose doublings between cohorts in the absence of grade ⩾2 toxicity according to the National Cancer Institute Common Toxicity Criteria version 3.0 during the first cycle (http://ctep.cancer.gov/protocolDevelopment/electronic_applications/docs/ctcaev3.pdf). Once grade ⩾2 considered drug-related toxicity occurred during the first cycle, two additional patients were enrolled at that dose level with subsequent cohorts in accordance with a conventional dose-escalation (3+3) model. DLT was defined as any grade 3 or 4 non-haematological toxicity, except for nausea, vomiting or diarrhoea responsive to treatment; grade 3 skin rash/acne responsive to treatment, alopecia and isolated grade 3 GGT elevations; need for loperamide for >7 days to treat or prevent grade ⩾2 diarrhoea; need for continuous administration of 5HT-3 antagonists for >7 days to treat or prevent grade ⩾2 nausea or vomiting; a relative decrease of LVEF on MUGA scan of >20% compared with baseline; any grade 4 haematological toxicity or treatment interruptions of >14 days for grade ⩾2 toxicity in cycle 1.
If during the conventional escalation stage no DLT occurred, the dose for the next cohort was incremented with 20–100%. If DLT was observed during cycle 1 in one of three patients, an additional three patients were enrolled at that dose level. If ⩾2 out of 6 patients experienced DLT, the MTD was exceeded and three more patients were enrolled at the next lower dose level, unless already six patients had been accrued at that dose. The MTD was defined as the highest dose at which less than one-third of the patients experienced DLT.
(§1) Prior to therapy, a complete medical history was taken and a physical examination was performed. A complete blood cell (CBC) count, WBC count and differential and serum biochemistry including lipid profile and coagulation tests were performed, as were urinalysis, a 12-lead electrocardiogram (ECG) and MUGA scanning. Weekly evaluations during the first cycle, every other week during the second cycle and monthly thereafter included history, physical examination, adverse event assessment, CBC, WBC+differential, serum chemistry, ECG and urinalysis. An ECG was performed predose and 1, 2, 4, 8 and 24 h postdose on days 1 and 28. Follow-up of LVEF by MUGA scanning was performed at the end of the first and second cycle. Tumour measurements were performed at baseline and during every other cycle. Response was assessed according to RECIST ([Therasse et al, 2000]).

[2] = phase I plasma pharmacokinetics; assay type: in vivo, human
Procedure: For pharmacokinetic analysis, blood samples (3 ml) were collected before dosing and 0.5, 1, 2, 3, 4, 6, 8 and 24 h after drug administration on days 1 and 28 and predose, 0.5, 1, 2, 4 and 6 h postdose on day 15 of the first cycle and day 28 of the second cycle. Furthermore, trough PK samples were taken before drug administration on days 8 and 22. Blood samples were collected and protected from light in EDTA-Vacutainer® tubes and plasma was separated by centrifugation and stored at −20°C within 2 h of collection. Plasma concentrations of JNJ-26483327 were determined by validated, selective and sensitive liquid chromatography–mass spectrometry bioanalytical method.
Graphical analysis was performed using dose-normalised Cmax as well as AUC of days 1 and 28 for exploration of dose proportionality across doses.
The pharmacokinetic analysis and descriptive statistics were performed using PKAA 2.00 (developed for J&JPRD). PKAA 2.00 uses WinNonLin 5.2.1. Elimination rate constants (λz) were calculated as the negative of the slope of the terminal log-linear segment of the plasma concentration–time curves. The range of data used for each subject and dose were determined by visual inspection of a semi-logarithmic plot of concentration vs time. At least three data points were used to estimate λz. All PK calculations and figures used validated software.

[3] = test system: advanced solid tumours; assay: anti-tumour activity (RECIST); assay type: in vivo, human; details: 19 patients
Procedure: as §1

[4] = molecular target: EGFR kinase; design: method as in Johnson & Johnson, data on file; details: in vitro; ref Johnson & Johnson, data on file; cited from earlier work
[5] = test system: mutationally activated EGFR kinases; design: method as in Johnson & Johnson, data on file; details: in vitro, several mutants; ref Johnson & Johnson, data on file; cited from earlier work
[6] = molecular target: RET-receptor kinase; design: method as in Johnson & Johnson, data on file; details: in vitro; ref Johnson & Johnson, data on file; cited from earlier work
[7] = test system: Her4; design: method as in Johnson & Johnson, data on file; details: ref Johnson & Johnson, data on file; read-out: IC50 range; cited from earlier work
[8] = test system: Lyn; design: method as in Johnson & Johnson, data on file; details: Src family; ref Johnson & Johnson, data on file; read-out: IC50 range; cited from earlier work
[9] = test system: Fyn; design: method as in Johnson & Johnson, data on file; details: Src family; ref Johnson & Johnson, data on file; read-out: IC50 range; cited from earlier work
[10] = test system: Yes; design: method as in Johnson & Johnson, data on file; details: Src family; ref Johnson & Johnson, data on file; read-out: IC50 range; cited from earlier work
[11] = test system: c-Src; design: method as in Johnson & Johnson, data on file; details: ref Johnson & Johnson, data on file; cited from earlier work
[12] = test system: Her2; design: method as in Johnson & Johnson, data on file; details: ref Johnson & Johnson, data on file; cited from earlier work
[13] = test system: Flt3; design: method as in Johnson & Johnson, data on file; details: ref Johnson & Johnson, data on file; cited from earlier work
[14] = design: method as in Johnson & Johnson, data on file; details: ref Johnson & Johnson, data on file; cited from earlier work
[15] = design: method as in Johnson & Johnson, data on file; details: preclinical studies; ref Johnson & Johnson, data on file; cited from earlier work
[16] = test system: xenograft mouse models; design: method as in Johnson & Johnson, data on file; details: preclinical studies; ref Johnson & Johnson, data on file; cited from earlier work
[17] = test system: healthy male volunteers; design: method as in preceding study in healthy male volunteers; details: single doses up to and including 200 mg; ref preceding study in healthy male volunteers; cited from earlier work
[18] = 800 mg BID, day 1, n=3, mean±s.d.
[19] = 800 mg BID, day 28 (steady state), n=2, mean
[20] = 1200 mg BID, day 1, n=3, mean±s.d.
[21] = 1200 mg BID, day 28 (steady state), n=2, mean
[22] = 1500 mg BID, day 1, n=6, mean±s.d.
[23] = 1500 mg BID, day 28 (steady state), n=6, mean±s.d.
[24] = 2100 mg BID, day 1, n=3, mean±s.d.
[25] = 2100 mg BID, day 28 (steady state), n=2, mean

COc1cc2ncnc3c2cc1OCCCCCN(C)Cc1ccc(Br)cc1N3 [JNJ-26483327]
Anaemia: patients, Total % ([1]; in vivo): 15.8% | Anaemia: patients, Total n ([1]; in vivo): 3 | Anorexia: patients, Total % ([1]; in vivo): 42.1% | Constipation: patients, Total % ([1]; in vivo): 10.5% | Constipation: patients, Total n ([1]; in vivo): 2 | Diarrhoea: patients, Total n ([1]; in vivo): 12 | Dry skin: patients, Total % ([1]; in vivo): 10.5% | Dry skin: patients, Total n ([1]; in vivo): 2 | Dyspepsia: patients, Total % ([1]; in vivo): 10.5% | Dyspepsia: patients, Total n ([1]; in vivo): 2 | Dysphonia: patients, Total % ([1]; in vivo): 15.8% | Dysphonia: patients, Total n ([1]; in vivo): 3 | Fatigue: patients, Total % ([1]; in vivo): 47.4% | Fatigue: patients, Total n ([1]; in vivo): 9 | Nausea: patients, Total % ([1]; in vivo): 68.4% | Nausea: patients, Total n ([1]; in vivo): 13 | Pain: patients, Total % ([1]; in vivo): 10.5% | Pain: patients, Total n ([1]; in vivo): 2 | Rash: patients, Total % ([1]; in vivo): 57.9% | Rash: patients, Total n ([1]; in vivo): 11 | Skin discolouration: patients, Total % ([1]; in vivo): 5.3% | Skin discolouration: patients, Total n ([1]; in vivo): 1 | Skin exfoliation (palms): patients, Total % ([1]; in vivo): 5.3% | Skin exfoliation (palms): patients, Total n ([1]; in vivo): 1 | Vomiting: patients, Total % ([1]; in vivo): 52.6% | Vomiting: patients, Total n ([1]; in vivo): 10 | Weight decreased: patients, Total % ([1]; in vivo): 10.5% | Weight decreased: patients, Total n ([1]; in vivo): 2 | gastrointestinal side effects, incidence ([1]; in vivo): 95% | hypertension ([1]; in vivo): no hypertension was noted | patients with grade 2 anaemia ([1]; in vivo): three | skin toxicity, overall incidence ([1]; in vivo): 68% | subjects with a significant decrease in LVEF ([1]; in vivo): None | recommended dose for further studies (phase 2 dose) ([1]; in vivo, po): 1500 mg BID | maximum tolerated dose (MTD) ([1]; oral, continuous, 28-day cycles): 1500 mg BID | CL/F [2, 18]: 86.3 ± 33.5 L/h | Cmax [2, 18]: 2210 ± 593 ng/mL | Vdz/F [2, 18]: 1021 ± 401 L | t1/2 [2, 18]: 8.4 ± 1.8 h | tmax ([2]; 800 mg BID, day 1, n=3, median (min–max)): 2.03 (2.00–3.02) h | AUC (AUCtau) [2, 19]: 10 623 ng h ml^−1 | CL/F [2, 19]: 76.4 L/h | Cmax [2, 19]: 2390 ng/mL | tmax ([2]; 800 mg BID, day 28 (steady state), n=2, median (min–max)): 1.52 (1.00–2.03) h | CL/F [2, 20]: 47.4 ± 35.3 L/h | Cmax [2, 20]: 3707 ± 1927 ng/mL | Vdz/F [2, 20]: 342 ± 212 L | t1/2 [2, 20]: 5.2 ± 1.7 h | tmax ([2]; 1200 mg BID, day 1, n=3, median (min–max)): 3.00 (2.00–6.00) h | AUC (AUCtau) [2, 21]: 21 230 ng h ml^−1 | CL/F [2, 21]: 88.4 L/h | Cmax [2, 21]: 2750 ng/mL | tmax ([2]; 1200 mg BID, day 28 (steady state), n=2, median (min–max)): 1.00 (1.00–1.00) h | CL/F [2, 22]: 144 ± 104 L/h | Cmax [2, 22]: 2361 ± 1765 ng/mL | Vdz/F [2, 22]: 1038 ± 799 L | t1/2 [2, 22]: 4.8 ± 0.5 h | tmax ([2]; 1500 mg BID, day 1, n=6, median (min–max)): 4.00 (2.00–4.03) h | CL/F [2, 23]: 286 ± 540 L/h | Cmax [2, 23]: 3375 ± 2116 ng/mL | tmax ([2]; 1500 mg BID, day 28 (steady state), n=6, median (min–max)): 3.99 (3.00–12.00) h | CL/F [2, 24]: 3055 ± 5099 L/h | t1/2 [2, 24]: 6.7 ± 1.7 h | Cmax ([2]; 2100 mg BID, day 1, n=4, mean±s.d.): 2213 ± 2983 ng/mL | tmax ([2]; 2100 mg BID, day 1, n=4, median (min–max)): 3.54 (2.00–4.08) h | AUC (AUCtau) [2, 25]: 8467 ng·h/mL | CL/F [2, 25]: 3087 L/h | Cmax [2, 25]: 1236 ng/mL | tmax ([2]; 2100 mg BID, day 28 (steady state), n=2, median (min–max)): 5.00 (4.00–6.00) h | dose proportionality of pharmacokinetics ([2]; Cmax and AUC at steady state): dose proportional up to 1500 mg | terminal half-life ([2]; all dose levels): 5 to 8 h | peak concentration (average) ([2]; day 1, 1200 mg): ~4 μg ml^–1 | Cmax ([2]; day 1, 1500 and 2100 mg dose groups): ~2 μg ml^–1 | time to reach Cmax ([2]; first administration, capsule formulation (dose levels 1500 and 2100 mg)): up to 4 h | time to reach Cmax ([2]; first administration, liquid formulation (dose levels 800 and 1200 mg)): 2 to 3 h | time to reach Cmax ([2]; steady state (days 15 and 28), capsule formulation): 2 to 5 h | time to reach Cmax ([2]; steady state (days 15 and 28), liquid formulation): 1 to 2 h | patients with stable disease lasting more than two cycles ([3]; 100–2100 mg BID): six | patients with stable disease ([3]; more than two cycles): 32% | IC50 [4]: < 10 nM | IC50 [5]: < 10 nM | IC50 [6]: < 10 nM | IC50 [7]: 11 to 99 nM | IC50 [8]: 11 to 99 nM | IC50 [9]: 11 to 99 nM | IC50 [10]: 11 to 99 nM | IC50 [11]: 100 to 1000 nM | IC50 [12]: 100 to 1000 nM | IC50 [13]: 100 to 1000 nM | oral bioavailability [14]: ~80% | tissue distribution profile [15]: passage of the blood–brain barrier | anti-cancer activity [16]: anti-cancer activity was observed | safety and tolerability [17]: safe and well tolerated
